According to patent publication US20260285853A1, “COMPOUNDS AND METHODS FOR MODULATING SPLICING” (REMIX THERAPEUTICS INC., priority 2023, published 2026):
Where a name gives a salt, the structure may show the parent alone.

Key:
Assay type in all cases: cell-based
[1] = system: MYB mRNA; assay: Splicing RT-qPCR assay (THP), Table 2A; settings: Table 2A (THP); for AC50: AJ mRNA increase, read-out: MYB AJ (increase in alternative junction mRNA, AC50); for IC50: CJ mRNA decrease, read-out: MYB CJ (decrease in canonical junction mRNA, IC50)
[2] = system: SH-SY5Y (human neuroblastoma) cells; assay: Cell viability, Cell Titer Glo 2.0 assay; settings: read-out: Viability SHSY5Y.3 GI50
How it was run: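 Steps: serial DMSO dilution of compound, 1:100 dilution into medium, addition to cells (0.1% DMSO final). Incubate 72 h at 37 °C, 5% CO2. Assay with CellTiter-Glo 2.0 reagent.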

[3] = system: HTT mRNA; assay: Splicing RT-qPCR assay (THP), Table 2A; settings: Table 2A (THP); for AC50: AJ mRNA increase, read-out: HTT AJ (increase in alternative junction mRNA, AC50); for IC50: CJ mRNA decrease, read-out: HTT CJ (decrease in canonical junction mRNA, IC50)
[4] = system: MYB mRNA; assay: Gene panel canonical junction qPCR assay, decrease in CJ mRNA, Table 3; settings: decrease in canonical junction (CJ) mRNA, gene panel qPCR, Table 3
How it was run: (§1)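 IC50 is the concentration giving 50% response in decrease of the canonical junction transcript, fitted with a 4-parameter logistic equation. Transcripts were quantified by RT-qPCR in A673 or K562 cells after 24 h exposure to compounds dosed up to 10 uM in 3-fold steps.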

[5] = system: HTT mRNA; assay: as above; settings: decrease in canonical junction (CJ) mRNA, gene panel qPCR, Table 3
How it was run: as §1

| Compound | AC50 [1] | IC50 [1] | GI50 [2] | AC50 [3] | IC50 [3] | IC50 [4] | IC50 [5] |
| --- | --- | --- | --- | --- | --- | --- | --- |
| CNCC1CCCN(c2ccc(C(=O)Nc3cc4cn(C)nc4cc3OC)c3nn(C)cc23)C1 (centres unmarked) [Compound 545] | 1000 to 10000 nM | 1000 to 10000 nM | 1000 to 10000 nM | > 10000 nM | > 10000 nM | 1000 to 10000 nM | > 10000 nM |
| COc1cc2nn(C)cc2cc1NC(=O)c1ccc(N2CCNC(C)CC2)c2cn(C)nc12 (centres unmarked) [Compound 546] | 100 to 1000 nM | 100 to 1000 nM | 1000 to 10000 nM | > 10000 nM | > 10000 nM | 100 to 1000 nM | > 10000 nM |
| COc1cc2nn(C)cc2cc1NC(=O)c1ccc(NC2CCCNCC2)c2cn(C)nc12 (centres unmarked) [Compound 547] | 1000 to 10000 nM | 1000 to 10000 nM | > 10000 nM | 1000 to 10000 nM | 1000 to 10000 nM | 1000 to 10000 nM | 1000 to 10000 nM |
| COc1cc2nn(C)cc2cc1NC(=O)c1ccc(N(C)C2CCNCC2)c2cn(C)nc12 [Compound 548] | 100 to 1000 nM | 100 to 1000 nM | 1000 to 10000 nM | > 10000 nM | > 10000 nM | 100 to 1000 nM | > 10000 nM |
| Cc1cn2cc(NC(=O)c3ccc(N4C[C@H](C)N[C@@H](C)C4)c4cn(C)nc34)nc2c(C)n1 [Compound 549] | 1000 to 10000 nM | 1000 to 10000 nM | > 10000 nM | > 10000 nM | > 10000 nM | 1000 to 10000 nM | > 10000 nM |
| COc1cc2nn(C)cc2cc1NC(=O)c1ccc(N2C[C@H](C)N[C@@H](C)C2)c2cn(C)nc12 [Compound 553] | < 100 nM | 100 to 1000 nM | 1000 to 10000 nM | 1000 to 10000 nM | 1000 to 10000 nM | 100 to 1000 nM | 1000 to 10000 nM |
| Cc1cn2cc(NC(=O)c3ccc(N4CCNC(C)C4)c4cn(C)nc34)nc2c(C)n1 (centres unmarked) [Compound 557] | 100 to 1000 nM | 100 to 1000 nM | 1000 to 10000 nM | > 10000 nM | > 10000 nM | 100 to 1000 nM | > 10000 nM |
| CC1OB(O)c2ccc(NC(=O)c3c(F)cc(N4CCC(NC5CC5)CC4)c4cn(C)nc34)cc21 (centres unmarked) [Compound 558, 4-(4-(cyclopropyl-amino)piperidin-1-yl)-6-fluoro-N-(1-hydroxy-3-methyl-1,3-dihydrobenzo[c]-[1,2]oxaborol-5-y1)-2-methyl-2H-indazole-7-carboxamide hydrochloride] | 1000 to 10000 nM | 1000 to 10000 nM | 100 to 1000 nM | > 10000 nM | > 10000 nM | 1000 to 10000 nM | > 10000 nM |
| Cc1cc2sc(NC(=O)c3ccc(N4CCC(NC5CC5)CC4)c4cn(C)nc34)cc2c(C)n1 [Compound 559, 4-[4-(cyclopropylamino)-1-piperidyl]-N-(4,6-dimethyl-thieno[3,2-c]-pyridin-2-yl)-2-methyl-indazole-7-carboxamide] | 1000 to 10000 nM | 1000 to 10000 nM | 1000 to 10000 nM | 1000 to 10000 nM | 1000 to 10000 nM | 1000 to 10000 nM | 1000 to 10000 nM |
| CCNC1CCN(c2ccc(C(=O)Nc3cn(C)c(=O)cc3OC)c3nn(C)cc23)CC1 [Compound 560, 4-[4-(ethylamino)-1-piperidyl]-N-(4-methoxy-1-methyl-6-oxo-3-pyridyl)-2-methyl-indazole-7-carboxamide] | > 10000 nM | 1000 to 10000 nM | > 10000 nM | > 10000 nM | > 10000 nM | 1000 to 10000 nM | > 10000 nM |
| CCNC1CCN(c2ccc(C(=O)Nc3cc(C)c(=O)n(C)c3)c3nn(C)cc23)CC1 [Compound 561, N-(1,5-dimethyl-6-oxo-3-pyridyl)-4-[4-(ethylamino)-1-piperidyl]-2-methyl-indazole-7-carboxamide] | > 10000 nM | 1000 to 10000 nM | > 10000 nM | > 10000 nM | > 10000 nM | 1000 to 10000 nM | > 10000 nM |
| Cc1cn2cc(NC(=O)c3ccc(N4CC5(CCNCC5)C4)c4cn(C)nc34)nc2c(C)n1 [Compound 562] | > 10000 nM | > 10000 nM | > 10000 nM | > 10000 nM | > 10000 nM | > 10000 nM | > 10000 nM |
| Cc1cn2cc(NC(=O)c3ccc(N4CCC5(CCN5)CC4)c4cn(C)nc34)nc2c(C)n1 [Compound 563, 4-(1,7-diazaspiro[3.5]nonan-7-yl)-N-(6,8-dimethyl-imidazo[1,2-a]pyrazin-2-yl)-2-methyl-indazole-7-carboxamide] | 100 to 1000 nM | 100 to 1000 nM | > 10000 nM | > 10000 nM | > 10000 nM | 100 to 1000 nM | > 10000 nM |
| Cc1cn2cc(NC(=O)c3ccc(N(C)C4CCNCC4)c4cn(C)nc34)nc2c(C)n1 [Compound 564] | 100 to 1000 nM | 100 to 1000 nM | 100 to 1000 nM | 100 to 1000 nM | 100 to 1000 nM | 100 to 1000 nM | 100 to 1000 nM |
| Cc1cn2cc(NC(=O)c3ccc(OC4CCNCC4)c4cn(C)nc34)nc2c(C)n1 [Compound 565] | 100 to 1000 nM | 100 to 1000 nM | 100 to 1000 nM | 100 to 1000 nM | 100 to 1000 nM | 100 to 1000 nM | 100 to 1000 nM |
| COc1cc2nn(C)cc2cc1NC(=O)c1ccc(OC2CCNCC2)c2cn(C)nc12 [Compound 566] | 100 to 1000 nM | 100 to 1000 nM | 1000 to 10000 nM | 1000 to 10000 nM | 100 to 1000 nM | 100 to 1000 nM | 100 to 1000 nM |
| COc1cc2nn(C)cc2cc1NC(=O)c1ccc(OC2CCNC2)c2cn(C)nc12 (centres unmarked) [Compound 567] | 100 to 1000 nM | 100 to 1000 nM | 1000 to 10000 nM | 1000 to 10000 nM | 100 to 1000 nM | 100 to 1000 nM | 100 to 1000 nM |
| COc1cc2nn(C)cc2cc1NC(=O)c1ccc(N2CCNC(C)C2)c2cn(C)nc12 (centres unmarked) [Compound 568] | 100 to 1000 nM | 100 to 1000 nM | 1000 to 10000 nM | 1000 to 10000 nM | 100 to 1000 nM | 100 to 1000 nM | 100 to 1000 nM |
| Cc1cn2cc(NC(=O)c3ccc(N4CCC(NC5CC5)CC4)c4cn(C)nc34)c(OC(C)C)c2c(C)n1 [Compound 569, 4-[4-(cyclopropylamino)-1-piperidyl]-N-(8-isopropoxy-1,3-dimethyl-pyrrolo[1,2-a]pyrazin-7-yl)-2-methyl-indazole-7-carboxamide] | > 10000 nM | > 10000 nM | 1000 to 10000 nM | > 10000 nM | > 10000 nM | > 10000 nM | > 10000 nM |
| Cc1cn2cc(NC(=O)c3ccc(N4CCC(NC5CC5)CC4)c4cn(C)nc34)cc2c(CNS(C)(=O)=O)n1 [Compound 570, 4-[4-(cyclopropyl-amino)-1-piperidyl]-N-[1-(methanesulfonamidometh-yl)-3-methyl-pyrrolo[1,2-a]-pyrazin-7-yl]-2-methyl-indazole-7-carboxamide] | > 10000 nM | > 10000 nM | > 10000 nM | > 10000 nM | > 10000 nM | > 10000 nM | > 10000 nM |
